Calls of active or inactive are those of the source.
Assays:
[1] = molecular target: T1, Intestinal-type alkaline phosphatase (Mus musculus, UniProt P24822); experiment: PubChem AID 488874; format: functional
[2] = molecular target: T2, Alkaline phosphatase, tissue-nonspecific isozyme (Homo sapiens, UniProt P05186); experiment: inhibition of tissue-nonspecific alkaline phosphatase – biochemical, dose response (AID 488882); format: functional
T2 sequence (P05186 whole entry): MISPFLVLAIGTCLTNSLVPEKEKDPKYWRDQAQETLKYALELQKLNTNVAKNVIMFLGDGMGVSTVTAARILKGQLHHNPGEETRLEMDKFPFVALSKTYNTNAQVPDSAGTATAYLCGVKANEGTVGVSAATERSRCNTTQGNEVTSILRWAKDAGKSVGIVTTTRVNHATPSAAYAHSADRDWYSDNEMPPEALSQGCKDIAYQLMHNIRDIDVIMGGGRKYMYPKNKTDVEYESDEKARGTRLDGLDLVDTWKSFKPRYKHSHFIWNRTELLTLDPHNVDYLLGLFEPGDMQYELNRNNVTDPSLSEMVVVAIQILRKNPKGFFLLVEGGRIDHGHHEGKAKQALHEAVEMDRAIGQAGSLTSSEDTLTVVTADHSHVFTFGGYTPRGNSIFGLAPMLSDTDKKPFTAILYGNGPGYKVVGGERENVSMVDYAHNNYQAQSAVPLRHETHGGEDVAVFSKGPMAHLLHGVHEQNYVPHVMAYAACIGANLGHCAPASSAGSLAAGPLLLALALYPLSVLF

[3] = molecular target: T3, Intestinal-type alkaline phosphatase (Homo sapiens, UniProt P09923); experiment: Dose Response confirmation of uHTS hits from a small molecule inhibitors of human intestinal alkaline phosphatase via a luminescent assay. [Related pubchem assays (depositor defined):AID2544, AID2574]; format: functional
T3 sequence (P09923 whole entry): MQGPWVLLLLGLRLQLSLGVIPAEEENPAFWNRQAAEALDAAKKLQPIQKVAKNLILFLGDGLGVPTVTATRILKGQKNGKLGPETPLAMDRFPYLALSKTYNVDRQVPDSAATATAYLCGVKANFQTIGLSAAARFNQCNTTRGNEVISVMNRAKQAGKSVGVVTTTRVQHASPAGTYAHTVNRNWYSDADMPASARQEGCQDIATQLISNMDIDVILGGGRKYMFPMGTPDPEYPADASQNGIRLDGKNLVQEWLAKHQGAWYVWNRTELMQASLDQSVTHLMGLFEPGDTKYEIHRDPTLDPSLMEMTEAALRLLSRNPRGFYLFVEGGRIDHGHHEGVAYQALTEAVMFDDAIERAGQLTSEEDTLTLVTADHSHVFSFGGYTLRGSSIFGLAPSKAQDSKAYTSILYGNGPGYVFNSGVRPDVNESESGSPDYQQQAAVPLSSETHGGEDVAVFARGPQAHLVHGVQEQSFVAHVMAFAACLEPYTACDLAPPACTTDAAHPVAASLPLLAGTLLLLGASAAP

[4] = molecular target: T3, Intestinal-type alkaline phosphatase; experiment: activation of human intestinal alkaline phosphatase – biochemical, dose response (AID 488873); format: functional
[5] = molecular target: 1-phosphatidylinositol 4,5-bisphosphate phosphodiesterase gamma-1 (Homo sapiens, UniProt P19174); experiment: Counterscreen for inhibitors of phospholipase C isozymes (PLC-B3): Fluorescence-based biochemical high throughput dose response assay to identify inhibitors of phospholipase C isozymes (PLC-gamma1).
[6] = molecular target: T3, Intestinal-type alkaline phosphatase; experiment: human IAP inhibitors, dose response, biochemical, luminescent, uHTS hits, set 2 (AID 488793); format: functional
[7] = molecular target: Large T antigen (Simian virus 40, UniProt P03070); format: functional, Betapolyomavirus macacae;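 further: Confirmatory-stage PubChem screen for compounds that inhibit SV40 T antigen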
Chain of Large T antigen (P03070 whole entry): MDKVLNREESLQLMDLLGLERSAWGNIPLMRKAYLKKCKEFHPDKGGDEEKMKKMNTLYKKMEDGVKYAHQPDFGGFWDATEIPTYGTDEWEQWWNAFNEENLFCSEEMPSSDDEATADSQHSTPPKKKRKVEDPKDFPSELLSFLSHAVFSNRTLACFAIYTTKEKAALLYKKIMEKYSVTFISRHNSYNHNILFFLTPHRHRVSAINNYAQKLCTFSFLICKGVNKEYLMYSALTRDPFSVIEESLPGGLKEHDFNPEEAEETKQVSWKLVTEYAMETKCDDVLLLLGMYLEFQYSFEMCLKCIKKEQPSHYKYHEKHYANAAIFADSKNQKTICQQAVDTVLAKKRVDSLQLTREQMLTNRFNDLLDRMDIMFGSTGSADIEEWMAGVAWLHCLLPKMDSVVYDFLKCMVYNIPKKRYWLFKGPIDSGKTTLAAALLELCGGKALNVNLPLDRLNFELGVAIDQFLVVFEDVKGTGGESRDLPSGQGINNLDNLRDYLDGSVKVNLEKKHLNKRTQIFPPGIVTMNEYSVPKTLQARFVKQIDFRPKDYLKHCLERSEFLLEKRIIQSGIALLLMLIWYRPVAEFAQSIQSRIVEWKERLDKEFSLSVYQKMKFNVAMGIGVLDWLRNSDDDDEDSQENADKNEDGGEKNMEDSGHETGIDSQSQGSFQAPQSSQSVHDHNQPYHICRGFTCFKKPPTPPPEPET

[8] = molecular target: Cytochrome P450 3A4 (Homo sapiens, UniProt P08684);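 further: CYP3A4 tested as one member of a cytochrome P450 panel screen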
Chain of Cytochrome P450 3A4 (P08684 whole entry): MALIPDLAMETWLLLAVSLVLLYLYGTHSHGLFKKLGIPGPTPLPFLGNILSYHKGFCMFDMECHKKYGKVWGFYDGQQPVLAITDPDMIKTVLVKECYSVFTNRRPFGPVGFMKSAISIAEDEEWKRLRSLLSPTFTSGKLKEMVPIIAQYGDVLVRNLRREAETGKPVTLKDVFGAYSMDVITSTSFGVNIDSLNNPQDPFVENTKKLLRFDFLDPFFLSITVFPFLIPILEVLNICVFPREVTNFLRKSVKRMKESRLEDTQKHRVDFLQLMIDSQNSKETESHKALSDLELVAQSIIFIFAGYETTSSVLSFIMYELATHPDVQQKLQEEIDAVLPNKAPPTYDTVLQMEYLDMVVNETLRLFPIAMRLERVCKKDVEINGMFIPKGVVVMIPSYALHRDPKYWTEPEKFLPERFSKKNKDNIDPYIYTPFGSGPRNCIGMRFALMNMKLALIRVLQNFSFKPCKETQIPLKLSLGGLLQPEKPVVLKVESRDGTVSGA

[9] = molecular target: T2, Alkaline phosphatase, tissue-nonspecific isozyme; experiment: TNAP enzyme inhibition by screening hits, dose response, selectivity assay for mouse IAP inhibitor project, biochemical, human TNAP, uHTS hits (AID 488906); format: functional
[10] = molecular target: T1, Intestinal-type alkaline phosphatase; experiment: PubChem AID 488785; format: functional
[11] = molecular target: 1-phosphatidylinositol 4,5-bisphosphate phosphodiesterase beta-3 (Homo sapiens, UniProt Q01970); experiment: Fluorescence-based biochemical high throughput dose response assay to identify inhibitors of phospholipase C isozymes (PLC-B3).
Chain of 1-phosphatidylinositol 4,5-bisphosphate phosphodiesterase beta-3 (Q01970 whole entry): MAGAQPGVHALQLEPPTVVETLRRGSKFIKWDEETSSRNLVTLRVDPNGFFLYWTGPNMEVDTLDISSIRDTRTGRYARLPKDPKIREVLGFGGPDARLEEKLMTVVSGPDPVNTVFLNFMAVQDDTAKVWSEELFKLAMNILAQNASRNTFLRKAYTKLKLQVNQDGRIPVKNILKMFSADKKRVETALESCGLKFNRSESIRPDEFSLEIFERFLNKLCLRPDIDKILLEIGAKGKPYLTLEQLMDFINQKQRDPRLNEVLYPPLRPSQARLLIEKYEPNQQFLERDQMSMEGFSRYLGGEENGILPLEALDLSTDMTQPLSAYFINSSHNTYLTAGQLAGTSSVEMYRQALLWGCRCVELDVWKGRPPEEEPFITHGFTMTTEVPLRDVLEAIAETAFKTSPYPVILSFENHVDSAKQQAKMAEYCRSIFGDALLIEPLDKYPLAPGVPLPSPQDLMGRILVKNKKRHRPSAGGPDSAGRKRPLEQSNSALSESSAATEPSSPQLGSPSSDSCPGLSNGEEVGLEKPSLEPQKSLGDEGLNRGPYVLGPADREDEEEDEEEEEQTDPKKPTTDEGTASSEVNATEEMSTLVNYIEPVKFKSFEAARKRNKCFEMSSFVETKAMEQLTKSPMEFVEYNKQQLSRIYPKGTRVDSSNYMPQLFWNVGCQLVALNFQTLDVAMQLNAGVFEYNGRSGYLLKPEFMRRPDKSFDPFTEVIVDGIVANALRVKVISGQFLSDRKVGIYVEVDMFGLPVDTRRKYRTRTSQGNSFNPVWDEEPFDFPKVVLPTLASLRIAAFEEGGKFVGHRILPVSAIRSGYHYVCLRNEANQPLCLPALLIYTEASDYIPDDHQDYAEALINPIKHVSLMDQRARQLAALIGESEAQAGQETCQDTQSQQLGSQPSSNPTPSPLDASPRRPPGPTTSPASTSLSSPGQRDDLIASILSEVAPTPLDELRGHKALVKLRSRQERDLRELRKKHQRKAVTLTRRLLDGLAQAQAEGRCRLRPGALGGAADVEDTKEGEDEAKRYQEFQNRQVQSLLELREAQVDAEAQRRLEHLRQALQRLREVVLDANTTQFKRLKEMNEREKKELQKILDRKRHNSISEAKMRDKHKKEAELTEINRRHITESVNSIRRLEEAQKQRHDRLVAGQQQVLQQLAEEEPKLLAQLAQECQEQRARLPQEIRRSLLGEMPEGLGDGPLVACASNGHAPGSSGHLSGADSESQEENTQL

[12] = molecular target: Voltage-dependent T-type calcium channel subunit alpha-1H (Homo sapiens, UniProt O95180); experiment: Cav3.2 T-type channel blockers, cell-based, SynthLib3 library, HEK293 Cav3.2, fluorescence (AID 493041); format: functional
[13] = molecular target: Exodeoxyribonuclease V (Escherichia coli (strain K12), UniProt P04993+P07648+P08394); experiment: E. coli RecBCD inhibitors, dose response, counter-screen for AddAB inhibitor project, absorbance, V66 E. coli, mutant T4 phage (AID 492957); format: functional, cell-based, Escherichia coli str. K-12 substr. MG1655
[14] = Counterscreen for AddAB inhibitors: absorbance-based bacterial cell-based high throughput dose response assay for inhibitors of bacterial viability. [Related pubchem assays (depositor defined):AID435030, AID449728, AID449731, AID488942, AID488955, AID488956]; format: functional
[15] = molecular target: T4, Aminopeptidase N (Plasmodium falciparum FcB1/Columbia, UniProt O96935); experiment: P. falciparum M1AAP inhibitors, biochemical, fluorogenic H-Leu-NHMec substrate, 1536-well (AID 1445); parameters: species or system Plasmodium falciparum 3D7, 3D7
T4 sequence (O96935 whole entry): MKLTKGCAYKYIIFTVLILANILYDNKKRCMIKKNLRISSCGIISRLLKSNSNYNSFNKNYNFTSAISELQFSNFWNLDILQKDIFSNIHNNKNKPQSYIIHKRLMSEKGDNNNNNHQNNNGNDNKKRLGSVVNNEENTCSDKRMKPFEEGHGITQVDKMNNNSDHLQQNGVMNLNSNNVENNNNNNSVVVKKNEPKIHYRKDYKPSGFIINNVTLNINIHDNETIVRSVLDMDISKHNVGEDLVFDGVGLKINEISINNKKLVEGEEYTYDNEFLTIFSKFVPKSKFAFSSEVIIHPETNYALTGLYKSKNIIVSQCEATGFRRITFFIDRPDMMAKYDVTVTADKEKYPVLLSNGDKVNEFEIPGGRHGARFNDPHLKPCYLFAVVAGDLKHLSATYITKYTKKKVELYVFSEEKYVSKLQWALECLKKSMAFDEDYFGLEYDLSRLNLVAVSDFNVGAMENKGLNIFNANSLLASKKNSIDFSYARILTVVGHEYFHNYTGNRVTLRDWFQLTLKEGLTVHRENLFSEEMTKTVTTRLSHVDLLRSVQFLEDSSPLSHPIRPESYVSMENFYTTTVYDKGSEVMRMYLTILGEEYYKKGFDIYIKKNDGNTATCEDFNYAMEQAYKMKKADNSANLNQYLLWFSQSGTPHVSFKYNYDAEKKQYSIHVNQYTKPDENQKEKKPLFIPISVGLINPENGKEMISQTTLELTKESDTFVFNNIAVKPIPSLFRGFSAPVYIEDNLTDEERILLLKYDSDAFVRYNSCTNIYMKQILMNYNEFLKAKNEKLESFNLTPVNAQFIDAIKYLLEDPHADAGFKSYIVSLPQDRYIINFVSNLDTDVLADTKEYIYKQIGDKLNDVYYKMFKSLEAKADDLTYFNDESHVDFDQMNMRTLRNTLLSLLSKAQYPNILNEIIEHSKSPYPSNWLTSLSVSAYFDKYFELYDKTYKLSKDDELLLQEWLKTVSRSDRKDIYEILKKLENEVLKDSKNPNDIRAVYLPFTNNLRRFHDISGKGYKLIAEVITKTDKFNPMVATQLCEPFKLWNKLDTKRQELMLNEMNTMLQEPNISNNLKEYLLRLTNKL

[16] = molecular target: Sphingosine 1-phosphate receptor 2 (Homo sapiens, UniProt O95136); experiment: Dose Response Cell Based Assay for Agonists of the S1P2 Receptor. [Related pubchem assays: 729, 736, 843 ]; format: functional
Chain of Sphingosine 1-phosphate receptor 2 (O95136 whole entry): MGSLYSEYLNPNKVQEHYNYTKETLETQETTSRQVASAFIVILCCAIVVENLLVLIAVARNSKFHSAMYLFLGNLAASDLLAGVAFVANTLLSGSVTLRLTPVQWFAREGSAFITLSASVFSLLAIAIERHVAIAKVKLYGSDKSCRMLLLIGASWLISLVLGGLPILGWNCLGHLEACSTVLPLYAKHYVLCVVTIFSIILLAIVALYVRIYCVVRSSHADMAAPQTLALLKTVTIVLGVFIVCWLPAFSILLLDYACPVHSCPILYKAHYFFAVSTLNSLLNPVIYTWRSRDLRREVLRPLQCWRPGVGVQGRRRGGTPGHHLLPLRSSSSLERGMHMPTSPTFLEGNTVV

[17] = molecular target: Sphingosine 1-phosphate receptor 4 (Homo sapiens, UniProt O95977); experiment: Fluorescence dose response cell-based high throughput screening assay for agonists of the Sphingosine 1-Phosphate Receptor 4 (S1P4). [Related pubchem assays: 1509 (Primary screen.), 1523 (Confirmation screen in triplicates.)]; format: functional
Chain of Sphingosine 1-phosphate receptor 4 (O95977 whole entry): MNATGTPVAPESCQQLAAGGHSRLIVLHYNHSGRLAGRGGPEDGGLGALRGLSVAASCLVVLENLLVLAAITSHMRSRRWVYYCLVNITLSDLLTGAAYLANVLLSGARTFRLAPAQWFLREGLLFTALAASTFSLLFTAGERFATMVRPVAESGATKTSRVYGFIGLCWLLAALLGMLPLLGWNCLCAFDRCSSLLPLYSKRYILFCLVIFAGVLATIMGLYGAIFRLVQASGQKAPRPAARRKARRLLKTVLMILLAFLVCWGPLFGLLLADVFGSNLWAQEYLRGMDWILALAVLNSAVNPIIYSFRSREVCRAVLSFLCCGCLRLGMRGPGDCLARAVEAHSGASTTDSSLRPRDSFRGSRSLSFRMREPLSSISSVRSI

[18] = molecular target: Sphingosine 1-phosphate receptor 1 (Homo sapiens, UniProt P21453); experiment: Fluorescence-based counterscreen assay for S1P4 agonists: Cell-based dose response high throughput screening assay to identify agonists of the Sphingosine 1-Phosphate Receptor 1 (S1P1). [Related pubchem assays (depositor defined):AID1509, AID1523, AID1801, AID463107, AID463118, AID463119, AID463122, AID463123, AID463129, AID463225, AID504400, AID504460]; format: functional
Chain of Sphingosine 1-phosphate receptor 1 (P21453 whole entry): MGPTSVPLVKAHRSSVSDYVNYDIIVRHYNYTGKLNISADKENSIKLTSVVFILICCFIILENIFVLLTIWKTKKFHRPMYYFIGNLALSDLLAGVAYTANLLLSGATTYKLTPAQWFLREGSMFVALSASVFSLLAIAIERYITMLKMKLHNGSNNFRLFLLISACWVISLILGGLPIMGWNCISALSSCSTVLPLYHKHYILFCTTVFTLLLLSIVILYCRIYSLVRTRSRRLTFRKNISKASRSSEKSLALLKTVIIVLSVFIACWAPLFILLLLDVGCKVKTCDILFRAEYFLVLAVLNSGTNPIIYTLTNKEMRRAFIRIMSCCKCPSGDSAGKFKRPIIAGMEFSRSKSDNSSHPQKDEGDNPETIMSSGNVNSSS

[19] = molecular target: T5, Replicative DNA helicase DnaB (Mycobacterium tuberculosis, UniProt P9WMR3); experiment: DnaB intein splicing inhibitors, dose response, biochemical, cell-free fluorescence (AID 449749); format: functional
T5 sequence (P9WMR3 whole entry): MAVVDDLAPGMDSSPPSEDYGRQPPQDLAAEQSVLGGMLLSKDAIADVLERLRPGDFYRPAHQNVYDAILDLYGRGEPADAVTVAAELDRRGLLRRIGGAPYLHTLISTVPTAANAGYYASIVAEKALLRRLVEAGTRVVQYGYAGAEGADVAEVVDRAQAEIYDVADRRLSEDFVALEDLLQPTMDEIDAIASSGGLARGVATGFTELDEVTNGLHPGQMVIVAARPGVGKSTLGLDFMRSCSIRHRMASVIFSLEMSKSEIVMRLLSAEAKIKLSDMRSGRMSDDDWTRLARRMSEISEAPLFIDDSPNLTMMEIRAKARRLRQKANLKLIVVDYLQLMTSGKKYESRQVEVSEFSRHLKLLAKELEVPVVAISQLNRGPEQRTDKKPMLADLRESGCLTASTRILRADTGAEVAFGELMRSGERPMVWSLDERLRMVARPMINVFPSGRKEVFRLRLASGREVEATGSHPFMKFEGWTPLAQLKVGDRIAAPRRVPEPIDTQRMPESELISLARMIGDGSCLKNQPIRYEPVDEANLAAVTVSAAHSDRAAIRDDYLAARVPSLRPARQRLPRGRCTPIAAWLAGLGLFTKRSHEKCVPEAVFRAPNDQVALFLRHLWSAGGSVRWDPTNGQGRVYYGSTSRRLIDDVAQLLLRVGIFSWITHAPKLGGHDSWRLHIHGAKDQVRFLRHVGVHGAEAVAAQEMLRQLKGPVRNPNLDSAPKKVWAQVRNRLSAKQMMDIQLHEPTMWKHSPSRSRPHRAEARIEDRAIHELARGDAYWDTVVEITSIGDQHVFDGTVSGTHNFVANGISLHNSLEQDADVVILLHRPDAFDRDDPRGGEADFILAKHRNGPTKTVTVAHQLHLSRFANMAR

[20] = insulin promoter down-regulators in MIN6 cells, imaging, high-content screening, mouse beta cells (AID 1628); format: functional
[21] = cytotoxicity in MIN6 insulinoma cells, dose response, cytotoxicity control, cell-based, mouse insulinoma (AID 2122); format: functional;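 further: confirmatory high-throughput counterscreen run to flag cytotoxic compounds; mouse MIN-6 beta cells carrying an insulin promoter eGFP reporter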
[22] = molecular target: T6, Protein RecA (Mycobacterium tuberculosis, UniProt P9WHJ3); experiment: Fluorescence Cell-Free Homogeneous Dose Retest to Identify Inhibitors of RecA-Intein Splicing Activity. [Related pubchem assays (depositor defined):AID2097, AID2223, AID489010, AID492950]; format: functional
T6 sequence (P9WHJ3 whole entry): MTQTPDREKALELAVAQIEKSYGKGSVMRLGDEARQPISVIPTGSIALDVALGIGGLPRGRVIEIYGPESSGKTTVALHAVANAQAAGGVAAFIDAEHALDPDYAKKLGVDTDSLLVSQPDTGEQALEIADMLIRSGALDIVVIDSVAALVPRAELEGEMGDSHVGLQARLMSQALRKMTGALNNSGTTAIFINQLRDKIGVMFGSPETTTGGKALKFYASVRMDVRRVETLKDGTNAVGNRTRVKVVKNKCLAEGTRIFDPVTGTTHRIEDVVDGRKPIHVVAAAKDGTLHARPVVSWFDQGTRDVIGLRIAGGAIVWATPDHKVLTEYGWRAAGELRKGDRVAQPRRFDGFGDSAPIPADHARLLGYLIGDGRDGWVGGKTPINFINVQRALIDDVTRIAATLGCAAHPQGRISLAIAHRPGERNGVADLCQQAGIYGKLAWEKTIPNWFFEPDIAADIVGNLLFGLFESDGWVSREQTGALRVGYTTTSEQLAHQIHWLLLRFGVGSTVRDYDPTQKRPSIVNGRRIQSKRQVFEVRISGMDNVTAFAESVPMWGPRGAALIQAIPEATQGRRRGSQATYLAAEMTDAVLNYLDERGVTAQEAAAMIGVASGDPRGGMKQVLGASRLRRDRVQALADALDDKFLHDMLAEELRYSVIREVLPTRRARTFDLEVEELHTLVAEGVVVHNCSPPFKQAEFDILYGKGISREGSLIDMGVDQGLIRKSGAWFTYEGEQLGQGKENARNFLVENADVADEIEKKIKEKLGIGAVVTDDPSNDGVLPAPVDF

[23] = molecular target: T7, Ubiquitin-conjugating enzyme E2 N (Homo sapiens, UniProt P61088); format: functional;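 further: Dose-response confirmation in a TR-FRET assay detecting UBC13-driven polyubiquitin chain formation, inhibition measured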
T7 sequence (P61088 whole entry): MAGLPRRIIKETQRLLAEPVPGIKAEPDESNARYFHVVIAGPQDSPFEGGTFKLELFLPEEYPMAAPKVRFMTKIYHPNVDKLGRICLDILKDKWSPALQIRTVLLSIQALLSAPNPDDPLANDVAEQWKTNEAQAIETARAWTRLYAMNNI

T1 sequence (P24822 whole entry): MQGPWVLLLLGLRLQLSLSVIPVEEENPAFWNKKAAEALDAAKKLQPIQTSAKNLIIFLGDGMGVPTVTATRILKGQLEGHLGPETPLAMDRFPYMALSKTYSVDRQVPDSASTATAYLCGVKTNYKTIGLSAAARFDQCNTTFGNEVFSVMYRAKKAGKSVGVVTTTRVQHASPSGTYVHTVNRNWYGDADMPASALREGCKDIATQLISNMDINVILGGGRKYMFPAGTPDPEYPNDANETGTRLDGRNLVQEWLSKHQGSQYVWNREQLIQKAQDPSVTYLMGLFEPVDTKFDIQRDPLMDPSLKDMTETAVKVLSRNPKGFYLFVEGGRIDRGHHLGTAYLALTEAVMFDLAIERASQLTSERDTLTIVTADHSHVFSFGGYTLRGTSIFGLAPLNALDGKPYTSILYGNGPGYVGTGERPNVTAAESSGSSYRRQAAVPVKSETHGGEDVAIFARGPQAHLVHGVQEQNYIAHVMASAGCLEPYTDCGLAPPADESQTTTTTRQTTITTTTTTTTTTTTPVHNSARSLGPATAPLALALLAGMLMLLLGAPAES

## COc1cc(/C=C(\C#N)C(=O)c2ccc(O)c(O)c2)cc(I)c1O
[1]
  IC50: < 0.195 µM (active)
[2]
  IC50: 5.88 µM (active)
[3]
  IC50: 7.31 µM (active)
[4]
  EC50: > 100 µM (inactive)
[5]
  IC50: > 122 µM (inactive)
[6]
  IC50: 4.56 µM (active)
[7]
  IC50: 7.17 µM (active)
[8]
  AC50: 12.6 µM (inconclusive)
[9]
  IC50: > 100 µM (inactive)
[10]
  IC50: 5.7 µM (active)
[11]
  IC50: > 122 µM (inactive)

## CCC(CC)CN1C[C@@H]2C(CNC(=O)c3cc(Cl)cc(Cl)c3)[C@@H]2C1 (stereo partly drawn)
[12]
  EC50: 1.2 µM (active)

## CCOc1ccc2oc(C(=O)NNC(=O)c3ccccc3O)c(C)c2c1
[13]
  IC50: > 119 µM (inactive)
[14]
  IC50: > 119 µM (inactive)

## CC(C)n1c(=N)c(C(=O)NCCc2ccccc2)cc2c(=O)n3ccccc3nc21
[15]
  IC50: 58.6 µM (active)
[16]
  EC50: 4.8 µM (active)
[17]
  EC50: 5.78 µM (active)
[18]
  EC50: 15.9 µM (inactive)

## Fc1ccc(Nc2nc(NCc3ccco3)c3ccccc3n2)cc1
[19]
  AC50: 1.93 µM (active)
[20]
  IC50: 1.7 µM (active)
[21]
  IC50: 1.93 µM (active)
[22]
  EC50: 8.32 µM (active)
[23]
  IC50: > 20 µM (inactive)

— ChEMBL document CHEMBL1201862, “PubChem BioAssay data set” (2004)
